From ChEMBL document CHEMBL1909046, “DrugMatrix in vitro pharmacology data”

How the values were obtained:
Interstitial collagenase = target: T1, Interstitial collagenase (Homo sapiens, UniProt P03956); experiment: biochemical; assay type: tissue-based, Rheumatoid synovial fibroblasts;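 further: MMP-1 enzyme inhibition assay using a peptide substrate; in other assays of this panel Not Active means under 50% inhibition at 10 µM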
T1 sequence (P03956 whole entry): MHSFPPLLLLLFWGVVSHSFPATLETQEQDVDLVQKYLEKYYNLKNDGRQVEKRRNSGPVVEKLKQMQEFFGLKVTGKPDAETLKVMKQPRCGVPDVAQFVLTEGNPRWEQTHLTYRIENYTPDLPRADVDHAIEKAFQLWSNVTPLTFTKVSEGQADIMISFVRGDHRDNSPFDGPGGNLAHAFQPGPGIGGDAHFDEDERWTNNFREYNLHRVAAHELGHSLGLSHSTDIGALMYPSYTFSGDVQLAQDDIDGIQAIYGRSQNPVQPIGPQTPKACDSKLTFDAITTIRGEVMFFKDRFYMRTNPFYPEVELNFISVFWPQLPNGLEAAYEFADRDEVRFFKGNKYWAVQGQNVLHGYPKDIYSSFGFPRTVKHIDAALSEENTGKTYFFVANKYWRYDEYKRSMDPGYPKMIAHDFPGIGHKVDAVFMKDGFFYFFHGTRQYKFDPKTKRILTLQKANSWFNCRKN

[1] = DRUGMATRIX: Platelet-Derived Growth Factor (PDGF) radioligand binding (ligand: [125I] PDGF); assay type: cell-based; conditions: nih3t3; Not Active = under 50% inhibition at 10 µM
[2] = DRUGMATRIX: Phorbol Ester radioligand binding (ligand: [3H] PDBu); assay type: cell membranes, Mus musculus, ICR, Brain, Membrane; conditions: Not Active = under 50% inhibition at 10 µM
Endothelin-1 receptor = target: T2, Endothelin-1 receptor (Homo sapiens, UniProt P25101); assay type: cell membranes, Membrane; conditions: cho-k1; further: in other assays of this panel Not Active means under 50% inhibition at 10 µM
T2 sequence (P25101 whole entry): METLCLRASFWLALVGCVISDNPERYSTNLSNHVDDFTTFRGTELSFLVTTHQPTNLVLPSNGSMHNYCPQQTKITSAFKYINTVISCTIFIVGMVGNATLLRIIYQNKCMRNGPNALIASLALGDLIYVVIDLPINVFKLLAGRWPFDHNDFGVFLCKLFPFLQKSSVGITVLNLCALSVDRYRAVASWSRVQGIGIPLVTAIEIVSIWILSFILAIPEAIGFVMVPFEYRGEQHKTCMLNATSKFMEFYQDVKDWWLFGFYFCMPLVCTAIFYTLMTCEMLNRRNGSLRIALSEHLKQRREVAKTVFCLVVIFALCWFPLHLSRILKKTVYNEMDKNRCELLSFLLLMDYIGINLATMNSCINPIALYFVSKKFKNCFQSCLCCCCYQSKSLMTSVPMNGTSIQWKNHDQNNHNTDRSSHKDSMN

[3] = DRUGMATRIX: Glutamate, NMDA, Phencyclidine radioligand binding (ligand: [3H] TCP); assay type: cell membranes, Rattus norvegicus, Wistar, Cerebral cortex, Membrane; conditions: Not Active = under 50% inhibition at 10 µM
[4] = target: Beta-3 adrenergic receptor (Homo sapiens, UniProt P13945); experiment: DRUGMATRIX: Adrenergic beta3 radioligand binding (ligand: [125I] Cyanopindolol); assay type: cell membranes, HEK293, Membrane; conditions: hek293; Not Active = under 50% inhibition at 10 µM
Sequence of Beta-3 adrenergic receptor (P13945 whole entry): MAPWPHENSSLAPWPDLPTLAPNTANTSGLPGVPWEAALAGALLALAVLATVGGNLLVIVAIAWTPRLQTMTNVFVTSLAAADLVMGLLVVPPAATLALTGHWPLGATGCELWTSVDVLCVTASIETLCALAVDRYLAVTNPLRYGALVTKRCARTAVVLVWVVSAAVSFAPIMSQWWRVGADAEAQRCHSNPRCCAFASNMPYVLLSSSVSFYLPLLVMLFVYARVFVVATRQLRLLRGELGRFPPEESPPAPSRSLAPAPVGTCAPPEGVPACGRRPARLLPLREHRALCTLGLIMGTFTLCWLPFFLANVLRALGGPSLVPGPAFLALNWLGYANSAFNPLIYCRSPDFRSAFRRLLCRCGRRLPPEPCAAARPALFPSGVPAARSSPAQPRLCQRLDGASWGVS

COc1ccc(C(=O)N2CCCC2=O)cc1
Not Active: IC50 (Interstitial collagenase) | IC50 [1] | Ki [1] | IC50 [2] | Ki [2] | IC50 (Endothelin-1 receptor) | IC50 [3] | Ki [3] | IC50 [4]

NCCCC(O)(P(=O)(O)O)P(=O)(O)O [ALENDRONIC ACID]
Not Active: IC50 (Interstitial collagenase) | IC50 [1] | Ki [1] | IC50 [2] | Ki [2] | IC50 (Endothelin-1 receptor) | IC50 [3] | Ki [3] | IC50 [4]

Cn1c(=O)c2[nH]cnc2n(C)c1=O.Cn1c(=O)c2[nH]cnc2n(C)c1=O.NCCN [AMINOPHYLLINE]
Not Active: IC50 (Interstitial collagenase) | IC50 [1] | Ki [1] | IC50 [2] | Ki [2] | IC50 (Endothelin-1 receptor) | IC50 [3] | Ki [3] | IC50 [4]

CCC1(CCC(C)C)C(=O)NC(=O)NC1=O [AMOBARBITAL]
Not Active: IC50 (Interstitial collagenase) | IC50 [1] | Ki [1] | IC50 [2] | Ki [2] | IC50 (Endothelin-1 receptor) | IC50 [3] | Ki [3] | IC50 [4]

CC1(C)S[C@@H]2[C@H](NC(=O)[C@H](N)c3ccccc3)C(=O)N2[C@H]1C(=O)O [AMPICILLIN]
Not Active: IC50 (Interstitial collagenase) | IC50 [1] | Ki [1] | IC50 [2] | Ki [2] | IC50 (Endothelin-1 receptor) | IC50 [3] | Ki [3] | IC50 [4]

O=C1O[C@H]([C@@H](O)CO)C(O)=C1O [ASCORBIC ACID]
Not Active: IC50 (Interstitial collagenase) | IC50 [1] | Ki [1] | IC50 [2] | Ki [2] | IC50 (Endothelin-1 receptor) | IC50 [3] | Ki [3] | IC50 [4]

CN1[C@@H]2CC[C@H]1C[C@@H](OC(=O)C(CO)c1ccccc1)C2 (some centres not stated) [ATROPINE]
Not Active: IC50 (Interstitial collagenase) | IC50 [1] | Ki [1] | IC50 [2] | Ki [2] | IC50 (Endothelin-1 receptor) | IC50 [3] | Ki [3] | IC50 [4]

Brc1c(NC2=NCCN2)ccc2nccnc12 [BRIMONIDINE]
Not Active: IC50 (Interstitial collagenase) | IC50 [1] | Ki [1] | IC50 [2] | Ki [2] | IC50 (Endothelin-1 receptor) | IC50 [3] | Ki [3] | IC50 [4]

CN(C)[C@@H]1C(O)=C(C(N)=O)C(=O)[C@@]2(O)C(O)=C3C(=O)c4c(O)ccc(Cl)c4[C@@](C)(O)[C@H]3C[C@@H]12 [CHLORTETRACYCLINE]
Not Active: IC50 (Interstitial collagenase) | IC50 [1] | Ki [1] | IC50 [2] | Ki [2] | IC50 (Endothelin-1 receptor) | IC50 [3] | Ki [3] | IC50 [4]

C[C@@H]1C[C@H]2[C@@H]3CCC4=CC(=O)C=C[C@]4(C)[C@@]3(F)[C@@H](O)C[C@]2(C)[C@H]1C(=O)CO [DESOXIMETASONE]
Not Active: IC50 (Interstitial collagenase) | IC50 [1] | Ki [1] | IC50 [2] | Ki [2] | IC50 (Endothelin-1 receptor) | IC50 [3] | Ki [3] | IC50 [4]

C[C@@H]1C[C@H]2[C@@H]3CCC4=CC(=O)C=C[C@]4(C)[C@@]3(F)[C@@H](O)C[C@]2(C)[C@@]1(O)C(=O)CO [DEXAMETHASONE]
Not Active: IC50 (Interstitial collagenase) | IC50 [1] | Ki [1] | IC50 [2] | Ki [2] | IC50 (Endothelin-1 receptor) | IC50 [3] | Ki [3] | IC50 [4]

CN(C)CC[C@@H](c1ccc(Cl)cc1)c1ccccn1 [DEXCHLORPHENIRAMINE]
Not Active: IC50 (Interstitial collagenase) | IC50 [1] | Ki [1] | IC50 [2] | Ki [2] | IC50 (Endothelin-1 receptor) | IC50 [3] | Ki [3] | IC50 [4]

C[C@H]1O[C@@H](n2cc(F)c(=O)[nH]c2=O)[C@H](O)[C@@H]1O [DOXIFLURIDINE]
Not Active: IC50 (Interstitial collagenase) | IC50 [1] | Ki [1] | IC50 [2] | Ki [2] | IC50 (Endothelin-1 receptor) | IC50 [3] | Ki [3] | IC50 [4]

CC[C@H]1CN2CCc3cc(OC)c(OC)cc3[C@@H]2C[C@@H]1C[C@H]1NCCc2cc(OC)c(OC)cc21 [EMETINE]
Not Active: IC50 (Interstitial collagenase) | IC50 [1] | Ki [1] | IC50 [2] | Ki [2] | IC50 (Endothelin-1 receptor) | IC50 [3] | Ki [3] | IC50 [4]

C[C@@H](CO)NC(=O)[C@@H]1C=C2c3cccc4[nH]cc(c34)C[C@H]2N(C)C1 [ERGONOVINE]
Not Active: IC50 (Interstitial collagenase) | IC50 [1] | Ki [1] | IC50 [2] | Ki [2] | IC50 (Endothelin-1 receptor) | IC50 [3] | Ki [3] | IC50 [4]

COC(=O)CCc1ccc(OCC(O)CNC(C)C)cc1 (configuration not stated) [ESMOLOL]
Not Active: IC50 (Interstitial collagenase) | IC50 [1] | Ki [1] | IC50 [2] | Ki [2] | IC50 (Endothelin-1 receptor) | IC50 [3] | Ki [3] | IC50 [4]

COc1cc([C@@H]2c3cc4c(cc3[C@@H](O[C@@H]3O[C@@H]5CO[C@@H](C)O[C@H]5[C@H](O)[C@H]3O)[C@H]3COC(=O)[C@H]23)OCO4)cc(OC)c1O [ETOPOSIDE]
Not Active: IC50 (Interstitial collagenase) | IC50 [1] | Ki [1] | IC50 [2] | Ki [2] | IC50 (Endothelin-1 receptor) | IC50 [3] | Ki [3] | IC50 [4]

CC(C(=O)O)c1cccc(Oc2ccccc2)c1 (configuration not stated) [FENOPROFEN]
Not Active: IC50 (Interstitial collagenase) | IC50 [1] | Ki [1] | IC50 [2] | Ki [2] | IC50 (Endothelin-1 receptor) | IC50 [3] | Ki [3] | IC50 [4]

CC(C)=CCC/C(C)=C/CO [GERANIOL]
Not Active: IC50 (Interstitial collagenase) | IC50 [1] | Ki [1] | IC50 [2] | Ki [2] | IC50 (Endothelin-1 receptor) | IC50 [3] | Ki [3] | IC50 [4]

N=C(N)NC(=O)Cc1c(Cl)cccc1Cl [GUANFACINE]
Not Active: IC50 (Interstitial collagenase) | IC50 [1] | Ki [1] | IC50 [2] | Ki [2] | IC50 (Endothelin-1 receptor) | IC50 [3] | Ki [3] | IC50 [4]

Oc1c(Cl)cc(Cl)c(Cl)c1Cc1c(O)c(Cl)cc(Cl)c1Cl [HEXACHLOROPHENE]
Not Active: IC50 (Interstitial collagenase) | IC50 [1] | Ki [1] | IC50 [2] | Ki [2] | IC50 (Endothelin-1 receptor) | IC50 [3] | Ki [3] | IC50 [4]

NNc1nncc2ccccc12 [HYDRALAZINE]
Not Active: IC50 (Interstitial collagenase) | IC50 [1] | Ki [1] | IC50 [2] | Ki [2] | IC50 (Endothelin-1 receptor) | IC50 [3] | Ki [3] | IC50 [4]

CC(=O)[C@@]1(O)CC[C@H]2[C@@H]3CCC4=CC(=O)CC[C@]4(C)[C@H]3CC[C@@]21C [HYDROXYPROGESTERONE]
Not Active: IC50 (Interstitial collagenase) | IC50 [1] | Ki [1] | IC50 [2] | Ki [2] | IC50 (Endothelin-1 receptor) | IC50 [3] | Ki [3] | IC50 [4]

Cc1c(OCC(F)(F)F)ccnc1C[S+]([O-])c1nc2ccccc2[nH]1 (configuration not stated) [LANSOPRAZOLE]
Not Active: IC50 (Interstitial collagenase) | IC50 [1] | Ki [1] | IC50 [2] | Ki [2] | IC50 (Endothelin-1 receptor) | IC50 [3] | Ki [3] | IC50 [4]

CC(C)NCC(O)COc1cccc2[nH]ccc12 (configuration not stated) [PINDOLOL]
Not Active: IC50 (Interstitial collagenase) | IC50 [1] | Ki [1] | IC50 [2] | Ki [2] | IC50 (Endothelin-1 receptor) | IC50 [3] | Ki [3]

CCCNCC(O)COc1ccccc1C(=O)CCc1ccccc1 (configuration not stated) [PROPAFENONE]
Not Active: IC50 (Interstitial collagenase) | IC50 [1] | Ki [1] | IC50 [2] | Ki [2] | IC50 (Endothelin-1 receptor) | IC50 [3] | Ki [3]
